Test results: patent US8697151B2, “Use of an extract from the vigna aconitifolia plant in a cosmetic and/or dermopharmaceutical composition” (BASF Beauty Care Solutions France S.A.S., priority 2001, dated 2014)

System: epidermal cell renewal
Assay: Epidermal cell renewal in vivo by the dihydroxyacetone test (DHA test)
Design: species or system human
Settings: for Development of luminescence (D15-D9) / Luminescence (AU) at D 15: 12 volunteers; for Luminescence (AU) at D 15: D15, 6 days after removal of the plasters, 3 mg/cm^2 daily; for Development of luminescence (D15-D9) % referring to control area: Wilcoxon T Test not significant
Procedure: Comparative in vivo tests were conducted to determine the accelerated epidermal cell renewal activity using 5 emulsions containing 0.2% by weight or 0.5% by weight vitamin A palmitate, 3% by weight or 5% by weight VITOPTINE® (extract of Vigna aconitifolia, Lab. Sero., Pulnoy) versus placebo.
Phase A and phase B were heated to 75° C. The aqueous phase was added to the fatty phase with continuous stirring and cooled to 60° C. by continued stirring. The combined phases were then homogenized for 2 mins. with an Ultraturrax. Finally, the active component is added with stirring and the whole is cooled to room temperature.
The study was carried out as a double blind study involving 12 female volunteers aged between 18 and 55 years.
The measurement parameter was the intensity of tanning of the skin after pigmenting with dihydroxyacetone. The decreasing tanning intensity corresponds to an increase in the renewal of the stratum corneum and the rate of the epidermal cell renewal cycle.
Eight areas (two groups of four) on the inside of the lower forearm were selected: • control area untreated and unpigmented by DHA, • area treated with placebo cream, • area treated with cream containing vitamin A palmitate • area treated with cream containing VITOPTINE®.
A standardized and randomized pretreatment with 3 mg/cm^2 of a preparation was carried out daily for 7 days. After the pretreatment, on day 8, DHA in the form of a face and body tanning lotion containing 5% by weight DHA was applied to the control and treated areas by an occlusive standardized process. On day 9, the occlusive plasters were removed. This was followed for another 6 days (days 10 to 15) by the same treatment as on days 1 to 7. The color intensity of the skin was determined immediately after removal of the plasters and 6 days later by colorimetric measurements (Minolta chromameter) via luminescence.
The first calculation (D15-D9) allowed evaluation of the development between day 9 (removal of the occlusive plasters) and day 15 (6 days after removal of the occlusive plasters). This development is representative of the epidermal cell renewal cycle. The greater the value, the higher the epidermal cell renewal.

CCCCCCCCCCCCCCCC(=O)OC/C=C(C)/C=C/C=C(C)/C=C/C1=C(C)CCCC1(C)C [vitamin A palmitate]
Development of luminescence (D15-D9) (cream containing 0.2%): 3.53
Luminescence (AU) at D 15 (cream containing 0.2%): 62.18 AU
Development of luminescence (D15-D9) % referring to control area (cream containing 0.2%): 32 (ns) %
Development of luminescence (D15-D9) (cream containing 0.5%): 3.79
Luminescence (AU) at D 15 (cream containing 0.5%): 62.44 AU
Development of luminescence (D15-D9) % referring to control area (cream containing 0.5%): 41 (ns) %
